The source of these data is patent publication US20130338221A1, “PHOTOAGING PROTECTIVE COMPOSITION CONTAINING CHROMENES DERIVED FROM SARGASSUM HORNERI” (PUKYONG NATIONAL UNIVERSITY INDUSTRY-UNIVERSITY C, priority 2012, published 2013).

One series has as its system MMP-13. The experiment in a line: MMP-13 secretion ELISA in UV-A irradiated HDF. In kind it is cell-based, human. The procedure: (§1) For measuring various collagen degradation MMP and inflammatory cytokine, collagen content in a cell, an enzyme-linked immunosorbent assay was used after UV-A irradiation. After irradiating HDF cell with UV-A, the cells were incubated with various concentrations of sample. After 24 h, the supernatants of the HDF cells were collected, and used for testing MMP, cytokine, hyaluronan, and collagen. For testing, Biotrak™ ELISA kits (Amersham Pharmacia Biosciences, England, UK), procollagen ELISA kit (Takara Bio Inc), and Hyaluronan ELISA kits (R&D system) were used according to the manufacturer's instructions.
(§2) Collagens are known to as main component of the skin and degraded by collagenase MMPs. Among MMPs, MMP-1, MMP-8 and MMP-13 are family of collagenases which are capable of degrading triple-helical fibrillar collagens. […] Therefore, inhibitory effect of chromenes on collagenase MMP secretions from the UV-A irradiated dermal fibroblasts was determined using ELISA assay.
(In an ELISA, binding on a coated surface is turned into a signal by an enzyme label.)

The test system of series [1] is intracellular glutathione (GSH) in HDF cells. The experiment in a line: Intracellular GSH level (mBBr) after UV-A. Type of series: cell-based, human. The procedure:
Intracellular glutathione (GSH) level in intact cells was determined using monobromobimane as a thiol-staining reagent. HDF cells were seeded into fluorescence microtiter 96-well plates at a density of 5×10^3 cells/well. Cell were washed three times with PBS and treated with various concentrations of the compounds after 6 J/cm^2 of UV-A irradiation and incubated for 30 min. 0.04 mM of Monobromobimane was added to cells and staining was carried out for 24 h at 37° C. in the dark. After staining fluorescence intensity was measured (excitation and emission: 360 and 465 nm) using a GENios® fluorescence microplate reader (Tecan Austria GmbH, Salzburg, Austria).
GSH is the most abundant low molecular weight thiol inside mammalian cells, and changes in glutathione level directly reflect intracellular redox alterations. To investigate the relationship between the increased ROS and the level of antioxidant materials in cells, the intracellular GSH level was measured.

The test system of series [2] is TNF-α. The experiment in a line: TNF-α mRNA and protein expression (RT-PCR, Western blot) in UV-A irradiated HDF. Type of series: cell-based, human. The procedure: Total cellular RNA was isolated using Trizol reagent (Invitrogen Co., CA, USA). The 2 μg of isolated RNA was reverse transcribed into cDNA using oligo-(dT) primer (Promega, Madison, Wis., USA). Target cDNA was amplified using the forward and reverse primer sequences. The amplification was carried out at 95° C. for 45 sec, 60° C. for 50 sec and 72° C. for 60 sec for cycles. After amplification step, extension process proceeded consecutively at 72° C. for 5 min. […] Gels were stained with 1 mg/ml of EtBr and photographed by UV illumination using AlphaEase® gel image analysis software (Alpha Innotech., San Leandro, Calif., USA).
Whole cells were lysed in RIPA buffer (Sigma-Aldrich Corp., St. Louis, USA). After centrifugation, total protein amount of cell lysates was determined using Lowry method (BioRad Laboratories, Hercules, Calif., USA). […] All primary monoclonal antibodies were diluted with TBS-T at 1:1000 ratio. Bound antibodies were detected by horseradish peroxidase-conjugated secondary antibodies for 1 h at room temperature and the immunoreactive proteins were detected using a chemiluminescent ECL assay kit (Amersham Pharmacia Biosciences, England, UK) according to the manufacturer's instructions. Western blot bands were visualized using a LAS3000® Luminescent image analyzer (Fujifilm Life Science, Tokyo, Japan).

Series [3] concerns TNF-α. The experiment in a line: TNF-α secretion ELISA in UV-A irradiated HDF. Type of series: cell-based, human. The procedure:
as §1
(§3) To investigate effect of chromenes on the cytokine production in UV-A irradiated dermal fibroblasts, inflammatory cytokine production was measured using ELISA assay (FIGS. 18 to 20).

Series [4] concerns human dermal fibroblasts (HDF cells). The experiment in a line: Protective effect on viability of UV-A irradiated dermal fibroblasts (MTT assay). Type of series: cell-based.
Experimental: HDF cells were seeded in 24-well plate at a density of 1×10^5 cells/well with DMEM containing 10% FBS, 2 mM gluramine and 100 μg/ml penicillin-streptomycin at 37° C. humidified atmosphere of 5% CO2. After incubation for 24 h, the cells were exposed to UV-A energy at the range of 6 J/cm^2 (365 nm UV-A light source, Bio-Sun lamp, Vilber Lourmat, Marine, France) in 200 μl of phosphate buffered saline (PBS) to each well. After UV-A irradiation, the cells were incubated for 24 h in serum-free DMEM.
Viability level of HDF cell was determined through ability of mitochondria capable of converting 3-(4,5-dimethylthiazol-2-yl)-2,5-diphenyl tetrazolium bromide (MTT) into a insoluble formazan product. Dermal fibroblasts were grown in 96-well plates at a density of 1×10^4 cells/well. After 24 h, after irradiating UV-A (6 J/cm^2) to the cell, the cells were cultured with the chromenes sample or without the chromenes sample at 37° C. humidified atmosphere of 5% CO2. The supernatant medium was removed, and the cells were incubated with 100 μl of MTT (1 mg/ml) for 4 h. The unconvertived MTT was removed, dimethyl sulfoxide (DMSO) was added, and then cell viability was measured at the absorbance at 540 nm using a microplate reader (Tecan Austria GmbH, Austria) to determine the amount of formazan in a cell. Relative cell viability was quantified as a percentage compared to the control group.
Series [5] deals with intracellular reactive oxygen species (ROS) in HDF cells. In words: Intracellular ROS generation by UV-A (DCFH-DA). In kind it is cell-based, human.
Experimental: Intracellular formation of reactive oxygen species (ROS) was assessed using oxidation sensitive dye 2′,7′-dichlorofluorescin diacetate (DCFH-DA) as the substrate. HDF cells growing in fluorescence microtiter 96-well plates for 24 h were exposed to UV-A (6 J/cm^2). The exposed cells were loaded with 20 μM DCFH-DA dissolved in PBS and incubated for 30 min in the dark at 37° C. humidified atmosphere of 5% CO2. […] The formation of 2′,7′-dichlorofluorescein (DCF) dissolved in PBS due to oxidation of DCFH in the presence of various ROS was read after every 20 min at the excitation wavelength (Ex) of 485 nm and the emission wavelength (Em) of 535 nm using a fluorescence microplate reader (Tecan Austria GmbH, Salzburg, Austria).
The cell system was labeled with DCFH-DA and followed by UV-A irradiation.
The next series deals with MMP-1. In words: MMP-1 secretion ELISA in UV-A irradiated HDF. In kind it is cell-based, human. The procedure: as §1, §2
In another series the test system is type I procollagen. In words: Type I procollagen ELISA in UV-A irradiated HDF. In kind it is cell-based, human. The procedure: as §1
Alterations of collagen have been thought to be a cause of the clinical skin changes of photoaging. The dermis contains predominantly type I collagen (85-90%) and the precursor molecules of collagen are called procollagen, which is synthesized in the form of polypeptide chains of type I collagen in dermal fibroblasts. UV irradiation induces the activity and synthesis of MMP in human skin, which mediate collagen destruction that results in much connective tissue damage. Therefore, we also studied the effects of chromenes on the level of type I procollagen in UVA-irradiated cultured dermal fibroblasts. The procollagen level was determined in the culture medium by ELISA assay.

A further series has as its system hyaluronan. The experiment in a line: Hyaluronan secretion ELISA in UV-A irradiated fibroblasts. Type of series: cell-based, human. The procedure:
as §1
Then, we evaluated effect of chromenes on hyaluronan secretion by UV-A irradiation.

In series [6] the test system is cell membrane proteins of HDF cells. In words: Cell membrane protein oxidation (carbonyl groups, DNPH) after UV-A. In kind it is cell-based, human.
Experimental: The amount of carbonyl groups in cell membrane proteins was determined to assess the cellular protein oxidation level that is a standard of determining the degree of cell membrane damage. HDF cells were co-cultured with various concentrations of compounds for 24 h after 6 J/cm^2 of UV-A irradiation. Cell were washed three times with PBS and lysed in lysis buffer without reducing agents (25 mM Tris-HCl, pH 7.8, 2 mM EDTA, 180 mM NaCl and 1% Triton X-100). Aliquots of cell lysates were separately incubated then trichloroacetic acid (400 μl from 20% trichloroacetic acid) was added to each reaction mixture and solubilized proteins were precipitated by centrifugation at 3,000 rpm for 15 minutes. Precipitated protein was resuspended in 2% 2,4-dinitrophenylhydrazine (2 mM HCl) and incubated at room temperature for 20 min. The protein was precipitated again with 20% trichloroacetic acid and the pellet was washed three times with ethanol:ethylacetate (1:1 v/v) solution. The pellet was then dissolved in 6 M guanidin hydrochloride (500 μl) and incubated for 15 min at 37° C. After centrifugation at 1,500 g for 5 min, absorbance of the supernatant was recorded against a complementary blank at 370 nm using a GENios® fluorescence microplate reader (Tecan Austria GmbH, Salzburg, Austria).
A further series relates to hyaluronan synthase 1. In words: Immunofluorescent labeling of hyaluronan synthase 1 after UV-A. Type of series: cell-based, human. As to conditions: 10 μM. The procedure:
(§4) Immunostaining is used to determine the subcellular distribution and organization of proteins. Cells were grown in 6-well plates, Aspirate liquid, then cover cells to a depth of 2-3 mm with 4% formaldehyde in PBS for 15 min at room temperature. Aspirate fixative, rinse three times in PBS for 5 minutes each then incubated primary antibody and for overnight at 4° C. Rinse three times in PBS for 5 min each. Incubate specimen in fluorochrome-conjugated secondary antibody diluted in Antibody Dilution Buffer for 1-2 h at room temperature in dark and incubated with Hoechest 33342 (Sigma-Aldrich Co. MO, USA). For best results, examine specimens immediately using appropriate excitation wavelength. For long-term storage, store slides flat at 4° C. protected from light. The image of HDF cells were collected using Leica invented microscopy (DM IRB) with 40× objective and a digital CCD camera (CTR 6000, Leica, Wetzlar, Germany) under fluorescence.
(§5) It has been reported that the exposure to UV-A causes degradation of collagen and fibronectin in the extracellular matrix. […] Results were evaluated through the images of the labeling assay under a fluorescent microscope with the previously mentioned excitation and emission values.

The subject of another series is IL-6. The experiment in a line: IL-6 secretion ELISA in UV-A irradiated HDF. In kind it is cell-based, human. The procedure:
as §1, §3

In a further series the test system is IL-1β. The experiment in a line: IL-1β secretion ELISA in UV-A irradiated HDF. In kind it is cell-based, human. The procedure:
as §1, §3

Series [7] has as its system membrane lipid hydroperoxides of HDF cells. The experiment in a line: Cell membrane lipid peroxidation (DPPP) after UV-A. Type of series: cell-based, human. The procedure: Intracellular lipid hydroperoxide levels were determined by the fluorescence probe, diphenyl-1-pyrenylphosphine (DPPP). HDF cells were seeded into fluorescence microtiter 96-well plates at a density of […] using serum-free media. After 80% confluence, HDF cells were treated with various concentrations of compounds and incubated for 24 h after 6 J/cm^2 of UV-A irradiation. Then, cells were washed three times with PBS and labeled with 13 μM DPPP (dissolved in DMSO) for 24 h at 37° C. in the dark. DPPP oxide fluorescence intensity was measured after 24 h at the excitation wavelength (Ex) of 361 nm and the emission wavelength (Em) of 380 nm using a GENios® fluorescence microplate reader (Tecan Austria GmbH, Salzburg, Austria).
The levels of lipid hydroperoxides in the presence and absence of chromenes were examined by using specific fluorescence probe, DPPP (FIG. 16). DPPP has been used as a sensitive method for measuring lipid hydroperoxides of cell membranes, since it successfully incorporates into membranes and oxidizes hydroperoxides to emit DPPP-oxide fluorescence.

The subject of a further series is fibronectin. The experiment in a line: Immunofluorescent labeling of fibronectin after UV-A. To be noted: 10 μM. In kind it is cell-based, human. The procedure:
as §4, §5

The subject of the next series is HDF cells. In words: Phototoxicity determination (MTT, compounds present during UV-A). Type of series: cell-based, human. As to conditions: retinoic acid 5 μM during UV-A. The procedure: HDF cells are exposed to UV-A light in the presence of chromenes and retinoic acid in concentrations of 5, 10, and 20 μM and 1, 2, and 5 μM, respectively. After 24 h, cell viability was determined by MTT assay.
In order to determine whether compounds have phototoxic effect, the cell viability of dermal fibroblasts was evaluated using MTT assay. Cells were co cultured with compounds and retinoic acid during UV-A irradiation. […] Therefore, the concentration of 1 μM retinoic acid was selected as a positive control for further experiment.

[8] abbreviates: A and B 5 to 20 μM, C 1 to 10 μM.
Setting [9] is: Homo sapiens, retinoic acid 1 μM.
The mark [10] stands for this setting: Homo sapiens, HDF, retinoic acid 1 μM.

Take `CC(C)=CCC/C(=C/CC/C(C)=C/CC[C@]1(C)CCc2cc(O)cc(C)c2O1)C(=O)O` [Compound A, sargachromenol]: the “MMP-13 secretion (in words)” value with MMP-13 (dose-dependent) is listed as “significantly reduced”. Besides, the “MMP-13 inhibition (%)” value with MMP-13 (samples 10 μM) is reported as 23.82%. In addition, the “Enhancement of GSH level (%)” value in series [1] (samples 10 μM) was determined as 23.17%. The “Inhibition of TNF-α expression” value with TNF-α [2] is recorded as “failed to show significant activity”. For the same molecule, the “TNF-α secretion (in words)” value with TNF-α [3] (setting [8]) was “slightly reduced”. In addition, the “Inhibition of TNF-α secretion (%)” value in the series on TNF-α [3] (samples 10 μM) is reported as 20.59%. For the same molecule, the “Fibroblasts protection (%)” value in [4] (samples 10 μM) is 37.25%. Also, the “ROS scavenging (%)” value in series [5] (samples 10 μM) is given as 38.58%. Besides, the “MMP-1 secretion (in words)” value in the series with MMP-1 (dose-dependent) was “significantly reduced”. Further, the “MMP-1 inhibition (%)” value in the series on MMP-1 (samples 10 μM) is 27.76%. In the series on type I procollagen (samples 10 μM), the “Procollagen (%)” value worked out at 115.79%. Further, the “Hyaluronan (%)” value in the series with hyaluronan (samples 10 μM) worked out at 16.67%. Further, in series [6] (samples 10 μM), the “Inhibition of protein oxidation (%)” value is given as 30.57%. Also, the “Hyaluronan synthase 1 amount” value with hyaluronan synthase 1 is “reduced”. Also, in the series with IL-6 (setting [8]), the “IL-6 secretion (in words)” value is on record as “slightly reduced”. The “Inhibition of IL-6 secretion (%)” value in the series on IL-6 (samples 10 μM) was determined as 11.11%. Further, the “IL-1β secretion (in words)” value in the series on IL-1β (setting [8]) is “slightly reduced”. The “Inhibition of IL-1β secretion (%)” value with IL-1β (samples 10 μM) is 10.07%. Besides, the “Inhibition of lipid peroxidation (%)” value in series [7] (samples 10 μM) is 15.63%. The “Protection of fibronectin decomposition” value in the series with fibronectin is reported as “not as significant as compound C”.

A word on the inhibition: it is how much of the control response was suppressed. For `CC1=C(/C=C/C(C)=C/C=C/C(C)=C/C(=O)O)C(C)(C)CCC1` [Retinoic acid, retinoic acid, reference compound], the inhibition at 1 µM in the series on MMP-13 (setting [9]) is 37.1%; in the series on TNF-α [3] (setting [9]) it was 24.4%; with MMP-1 (setting [9]), 30.7%; in [6] (setting [10]) it was 55.4%; in the series with IL-6 (setting [9]) it was 14.1%; in the series with IL-1β (setting [9]) it was 6.71%. In series [7] (setting [10]), this molecule showed an inhibition at 1 µM of 21.6%. Moreover, the “Enhancement of GSH level (%)” value in series [1] (retinoic acid 1 μM) is 15.85%. Moreover, the Phototoxicity result in the series on HDF cells is reported as “a little phototoxic effect”. Moreover, the “Fibroblasts protection (%)” value in series [4] (retinoic acid 1 μM) turned out to be 12.21%. In series [5] (retinoic acid 1 μM), the “ROS scavenging (%)” value is on record as 46.60%. Moreover, in the series on type I procollagen (1 μM, culture medium, UV-A irradiated HDF), the “Type I procollagen secretion level” value was determined as 60 ng/mL. Further, the “Procollagen (%)” value with type I procollagen (retinoic acid 1 μM) is 57.89%. Further, the “Hyaluronan (%)” value with hyaluronan (retinoic acid 1 μM) is listed as 31.11%. Besides, the “IL-6 level after treatment” value in the series with IL-6 (at the same concentration (1 μM), UV-A irradiated HDF) came to 119 pg/mL.
